Experimental data as given in patent US20250144224A1, “ABL INHIBITORS AND USES THEREOF” (The Regents of the University of California, priority 2021, published 2025).

What was measured:
[1] = test system: K562 CRISPRi or CRISPRa cells with IFITM1-3 expression modulation; experiment: Chemical-genetic interaction mapping (IC50 shift in cell viability assay); format: cell-based, human; conditions: IFITM1-3 knockdown (CRISPRi) or overexpression (CRISPRa), 72 h
Experimental: Cell viability was assessed by CellTiter-Glo (CTG) Luminescent Cell Viability Assay (Promega). Cells were equilibrated to room temperature before the addition of diluted (1:4 CTG reagent:PBS) CTG reagent (100 μL per well). Plates were agitated on an orbital shaker and luminescence signal was measured on a SpectraMax M5 (Molecular Devices) or Spark (Tecan) plate reader. Repeated measurements of luminescence were performed as technical replicates to determine incubation times optimal for signal-to-noise. Luminescence measurements were normalized to DMSO-treated values to determine relative cell viability.
Cells treated with compounds were evaluated for viability as described herein. […] The same top concentrations were used in K562 CRISPRa cells with the exception of HJB97 (1 μM), JQ1 (1 μM), MZ1 (1 μM), and dBET6 (100 nM). Using Prism 9 (GraphPad Software), a 4-parameter nonlinear regression model was fit to the viability data to determine IC50 values. IC50 values of sgRNA+ cells were normalized to that of non-sgRNA expressing cells to determine sensitivity/resistance chemical-genetic interactions mapped in FIG. 4B.

[2] = Parallel artificial membrane permeability assay (PAMPA); format: in vitro ADME; conditions: 100 μM in PBS, 5 h, LC-MS
Experimental: PAMPA was performed by Quintara Discovery using the BioCoat Pre-coated PAMPA Plate System (Corning) as described previously (15) and based on manufacturer's recommendations. All compounds were assessed at 100 μM in PBS. Compound concentrations in donor and acceptor compartments were quantified using liquid chromatography-mass spectrometry (LC-MS) 5 h following compound addition into the donor compartment.

ABL1 kinase domain = biological target: T1, ABL1 kinase domain (Homo sapiens, UniProt P00519); experiment: ATP-site kinase pulldown (KdELECT competition binding); conditions: 100-fold molar excess asciminib
T1 sequence (P00519 242-493 limits assumed): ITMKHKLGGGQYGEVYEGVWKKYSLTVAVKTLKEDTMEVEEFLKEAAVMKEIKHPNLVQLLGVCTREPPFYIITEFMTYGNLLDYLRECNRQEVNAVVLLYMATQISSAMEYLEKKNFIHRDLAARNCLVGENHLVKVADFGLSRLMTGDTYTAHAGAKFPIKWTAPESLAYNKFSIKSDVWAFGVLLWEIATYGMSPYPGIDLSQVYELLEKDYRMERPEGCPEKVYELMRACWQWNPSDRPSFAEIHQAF
Experimental: ATP-site competition binding assay (KdELECT) was performed by Eurofins DiscoverX as described previously (11). Compounds were assessed in 11-point 3-fold dilution series and compound mixtures were analogously diluted from a DMSO stock containing the 2 compounds at the ratio indicated. Pulldown measurements of DNA-tagged kinase by quantitative polymerase chain reaction (qPCR) were normalized to DMSO-treated values to determine relative ATP-site pulldown. A 4-parameter nonlinear regression model was fit to the data using Prism 9 (GraphPad Software) with the top parameter constrained to 100%.

K562 cells (wild-type) = experiment: CellTiter-Glo cell viability, K562 wild-type; conditions: Homo sapiens, K562, 72 h, read-out: EC50 (nM) CTG K562 wt
Experimental: (§1) Compounds were tested for ability to inhibit cell growth. K562 cells (wild-type or CRISPR base-edited Bcr-Abl T315I) were plated at 1000 cells/well in 96-well plates and treated with the indicated compounds at the indicated concentrations for three days in triplicate, then tested for cell viability by the CellTiter-Glo 2.0 assay (Promega).
(§2) Compounds were tested for ability to inhibit cell growth. K562 cells (wild-type or CRISPR base-edited Bcr-Abl T315I) were plated at 1000 cells/well in 96-well plates and treated with the indicated compounds at the indicated concentrations for three days in triplicate, then tested for cell viability by the CellTiter-Glo 2.0 assay (Promega). […] Compounds were tested for ability to inhibit cell growth. K562 cells (wild-type or CRISPR base-edited Bcr-Abl T315I) were plated at 1000 cells/well in 96-well plates and treated with the indicated compounds at the indicated concentrations for three days in triplicate, then tested for cell viability by the CellTiter-Glo 2.0 assay (Promega).
(§3) Cells were treated with the indicated concentrations of compound in 9-point 3-fold dilution series (100 μL final volume per well) and incubated at 37° C. for 72 h. Cell viability was assessed by CellTiter-Glo (CTG) Luminescent Cell Viability Assay (Promega). Cells were equilibrated to room temperature before the addition of diluted (1:4 CTG reagent:PBS) CTG reagent (100 μL per well). Plates were agitated on an orbital shaker and luminescence signal was measured on a SpectraMax M5 (Molecular Devices) or Spark (Tecan) plate reader. Repeated measurements of luminescence were performed as technical replicates to determine incubation times optimal for signal-to-noise. Luminescence measurements were normalized to DMSO-treated values to determine relative cell viability.

[3] = test system: kinases labeled by XO44 in K562 CRISPRi cells; experiment: Live cell kinase occupancy profiling with XO44 probe; conditions: 100 nM, 4 h pretreatment, then XO44, live K562 CRISPRi cells
[4] = test system: intracellular BCR-ABL1 in K562 CRISPRi/a cells; experiment: Immunoblots of pharmacodynamic markers of BCR-ABL1 inhibition; format: cell-based, human; conditions: nanomolar concentrations (10 nM)
Experimental: FIGS. 3A-3F. […] Data represent two biological replicates. […] Data represent three biological replicates.
Cells (500,000 cells in 2 mL per well) were seeded into 6-well plates and incubated at 37° C. overnight. Following treatment with compounds at the concentrations and times indicated, cells were placed over ice, transferred to 2 mL microcentrifuge tubes, and pelleted at 500 g, 4° C. The pelleted cells were washed twice with ice-cold phosphate-buffered saline (PBS) and stored at −80° C. […] Proteins were separated by polyacrylamide gel electrophoresis (PAGE), transferred to 0.2 μm pore size nitrocellulose membranes (Bio-Rad) and blocked using blocking buffer [5% bovine serum albumin (Millipore) in Tris-buffered saline, 0.1% Tween 20 (TBST) supplemented with 0.02% NaN3]. Membranes were probed with primary antibodies against FKBP12 (ab58072) from Abcam and p-ABL1^Y245 (2861), p-CRKL^Y207 (3181), IFITM1 (13126), IFITM2 (13530), IFITM3 (59212), p-STAT5^Y694 (4322), and Tubulin (3873) from Cell Signaling Technology diluted (1:1000) in blocking buffer. After primary antibody incubation, membranes were treated with IRDye secondary antibodies (LI-COR Biosciences) according to manufacturer's recommendations and scanned on an Odyssey Imaging System (LI-COR Biosciences). Immunoblot scans were processed using ImageStudioLite 5.2.5 (LI-COR).

[5] = test system: K562 cells (CRISPR base-edited Bcr-Abl T315I); experiment: CellTiter-Glo cell viability, K562 Bcr-Abl T315I; conditions: Homo sapiens, K562, 72 h, read-out: EC50 (nM) CTG K562 T315I
Experimental: as §1, §2, §3

SMILES: Cc1nc(Nc2ncc(C(=O)Nc3c(C)cccc3Cl)s2)cc(N2CCN(C(=O)CCOCCOCCOCCOCCOCCOCCOCCOCCOCCOCCOCCOCCNC(=O)C3CCN(c4ncc(C(=O)Nc5ccc(OC(F)(F)Cl)cc5)cc4-c4ccn[nH]4)CC3)CC2)n1 [DasatiLink-1]
- IFITM dependency of potency (IC50 shift in cell viability assay) [1]: validated the IFITM dependency
- artificial membrane permeability by PAMPA [2]: impermeable
- effect of excess asciminib on ability to occupy the ATP-site (ABL1 kinase domain): impaired the ability of DasatiLink-1 to occupy the ATP-site
- EC50 (K562 cells (wild-type)): 2.47 nM
- intracellular kinase occupancy (kinome-wide selectivity) [3]: observable intracellular occupancy of only a single kinase
- time required for maximal inhibition of target [4]: multiple hours
- EC50 [5]: > 300 nM
